Assay results reported in US11697648B2, “Fused pyrimidine pyridinone compounds as JAK inhibitors” (THERAVANCE BIOPHARMA R&D IP, LLC, priority 2019, dated 2023).

Legend:
JAK1 = JAK1 (Homo sapiens (Human), UniProt P23458); experiment: Biochemical JAK1 kinase assay (LanthaScreen)
Outline: (§1)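 GST-JAK + GFP-STAT1 peptide, HEPES pH 7.5/MgCl2/EGTA/Brij-35 buffer; cpd preincubation 1 h RT; ATP start, 1 h RT; stop with 10 mM EDTA + 2 nM Tb-anti-pSTAT1; TR-FRET 520/495. 4-parameter IC50 → pKi (Cheng-Prusoff).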

JAK2 = JAK2 (Homo sapiens (Human), UniProt O60674); experiment: Biochemical JAK2 kinase assay (LanthaScreen)
Outline: as §1

JAK3 = JAK3 (Homo sapiens (Human), UniProt P52333); experiment: Biochemical JAK3 kinase assay (LanthaScreen)
Outline: as §1

Tyk2 = Tyk2 (Homo sapiens (Human), UniProt P29597); experiment: Biochemical Tyk2 kinase assay (LanthaScreen)
Outline: as §1

[1] = system: IL-2 stimulated STAT5 phosphorylation in Tall-1 human T cell line (JAK3); experiment: Cellular JAK3 potency assay: inhibition of IL-2 stimulated pSTAT5 in Tall-1 T cells; format: cell-based
Outline: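 Tall-1 cells, 45,000 per well, preincubated 1 hour with compound at 37 °C, then stimulated 30 minutes with IL-2 at 300 ng/ml final. pSTAT5 (Tyr694/699) in lysates quantified by AlphaLISA SureFire Ultra. pIC50 derived from inhibition curves, given as mean with SD.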

[2] = selectivity JAK3 over JAK1, difference of pKi
[3] = IL-2 stimulated pSTAT5, Tall-1 T cells
[4] = selectivity, difference of pKi values
[5] = IL-2 stimulated pSTAT5 in Tall-1 T cells

Chain of JAK1 (P23458 whole entry): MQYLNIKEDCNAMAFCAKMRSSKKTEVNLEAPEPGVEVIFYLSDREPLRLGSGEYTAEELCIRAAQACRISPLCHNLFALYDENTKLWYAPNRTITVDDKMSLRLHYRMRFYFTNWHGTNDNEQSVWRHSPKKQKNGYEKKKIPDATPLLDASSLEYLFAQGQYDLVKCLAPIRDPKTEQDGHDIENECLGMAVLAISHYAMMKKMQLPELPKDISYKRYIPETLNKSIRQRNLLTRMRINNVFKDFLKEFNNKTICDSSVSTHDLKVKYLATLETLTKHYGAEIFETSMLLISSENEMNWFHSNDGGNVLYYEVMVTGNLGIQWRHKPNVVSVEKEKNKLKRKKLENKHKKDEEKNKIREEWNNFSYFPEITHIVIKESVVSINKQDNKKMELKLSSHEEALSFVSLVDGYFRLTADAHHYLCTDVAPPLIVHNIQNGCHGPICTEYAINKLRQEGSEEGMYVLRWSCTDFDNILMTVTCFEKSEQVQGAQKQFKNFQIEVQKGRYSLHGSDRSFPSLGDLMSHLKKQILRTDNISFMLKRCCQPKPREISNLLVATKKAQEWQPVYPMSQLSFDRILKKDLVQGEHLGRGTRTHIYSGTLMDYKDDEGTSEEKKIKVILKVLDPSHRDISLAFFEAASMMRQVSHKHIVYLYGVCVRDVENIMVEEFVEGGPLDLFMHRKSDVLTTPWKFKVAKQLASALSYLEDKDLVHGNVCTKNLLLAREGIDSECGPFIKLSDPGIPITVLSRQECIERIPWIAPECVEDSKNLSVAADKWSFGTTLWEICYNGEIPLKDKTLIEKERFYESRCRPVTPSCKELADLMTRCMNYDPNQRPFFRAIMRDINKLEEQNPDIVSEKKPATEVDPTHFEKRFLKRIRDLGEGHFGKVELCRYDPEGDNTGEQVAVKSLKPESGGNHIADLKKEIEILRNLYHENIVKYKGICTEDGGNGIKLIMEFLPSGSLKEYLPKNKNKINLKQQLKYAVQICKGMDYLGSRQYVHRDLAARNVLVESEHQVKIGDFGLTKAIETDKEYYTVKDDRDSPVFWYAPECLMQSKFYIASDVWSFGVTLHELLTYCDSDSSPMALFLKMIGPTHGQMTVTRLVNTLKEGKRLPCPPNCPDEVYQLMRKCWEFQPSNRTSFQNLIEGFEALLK
Chain of JAK2 (O60674 whole entry): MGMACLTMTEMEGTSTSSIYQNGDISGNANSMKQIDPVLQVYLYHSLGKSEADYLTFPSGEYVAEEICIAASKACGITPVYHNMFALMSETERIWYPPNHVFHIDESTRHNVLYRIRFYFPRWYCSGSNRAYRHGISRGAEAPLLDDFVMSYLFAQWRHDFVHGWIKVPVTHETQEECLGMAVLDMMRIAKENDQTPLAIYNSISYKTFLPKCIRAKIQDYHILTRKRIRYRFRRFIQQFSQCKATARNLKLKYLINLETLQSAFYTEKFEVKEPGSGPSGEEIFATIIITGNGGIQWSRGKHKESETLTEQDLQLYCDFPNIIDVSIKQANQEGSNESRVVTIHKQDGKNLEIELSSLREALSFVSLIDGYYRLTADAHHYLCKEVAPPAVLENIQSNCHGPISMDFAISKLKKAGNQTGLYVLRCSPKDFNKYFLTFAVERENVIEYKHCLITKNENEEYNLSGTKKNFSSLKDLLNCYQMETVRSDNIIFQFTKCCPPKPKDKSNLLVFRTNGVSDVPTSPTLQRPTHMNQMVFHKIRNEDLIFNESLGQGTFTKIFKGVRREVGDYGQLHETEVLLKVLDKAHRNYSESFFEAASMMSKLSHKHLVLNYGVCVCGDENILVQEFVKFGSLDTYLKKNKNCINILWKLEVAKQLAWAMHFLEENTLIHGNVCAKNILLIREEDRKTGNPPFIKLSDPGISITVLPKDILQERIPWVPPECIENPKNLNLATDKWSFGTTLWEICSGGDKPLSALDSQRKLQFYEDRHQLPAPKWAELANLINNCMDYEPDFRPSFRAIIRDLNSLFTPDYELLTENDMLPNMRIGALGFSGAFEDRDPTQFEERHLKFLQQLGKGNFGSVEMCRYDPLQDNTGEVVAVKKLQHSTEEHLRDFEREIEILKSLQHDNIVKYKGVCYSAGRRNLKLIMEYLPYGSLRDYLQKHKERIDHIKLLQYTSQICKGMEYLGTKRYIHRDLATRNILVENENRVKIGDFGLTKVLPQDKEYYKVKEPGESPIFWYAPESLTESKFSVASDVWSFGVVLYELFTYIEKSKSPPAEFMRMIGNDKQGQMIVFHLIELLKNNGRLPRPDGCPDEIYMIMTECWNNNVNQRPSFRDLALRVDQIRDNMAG
Chain of JAK3 (P52333 whole entry): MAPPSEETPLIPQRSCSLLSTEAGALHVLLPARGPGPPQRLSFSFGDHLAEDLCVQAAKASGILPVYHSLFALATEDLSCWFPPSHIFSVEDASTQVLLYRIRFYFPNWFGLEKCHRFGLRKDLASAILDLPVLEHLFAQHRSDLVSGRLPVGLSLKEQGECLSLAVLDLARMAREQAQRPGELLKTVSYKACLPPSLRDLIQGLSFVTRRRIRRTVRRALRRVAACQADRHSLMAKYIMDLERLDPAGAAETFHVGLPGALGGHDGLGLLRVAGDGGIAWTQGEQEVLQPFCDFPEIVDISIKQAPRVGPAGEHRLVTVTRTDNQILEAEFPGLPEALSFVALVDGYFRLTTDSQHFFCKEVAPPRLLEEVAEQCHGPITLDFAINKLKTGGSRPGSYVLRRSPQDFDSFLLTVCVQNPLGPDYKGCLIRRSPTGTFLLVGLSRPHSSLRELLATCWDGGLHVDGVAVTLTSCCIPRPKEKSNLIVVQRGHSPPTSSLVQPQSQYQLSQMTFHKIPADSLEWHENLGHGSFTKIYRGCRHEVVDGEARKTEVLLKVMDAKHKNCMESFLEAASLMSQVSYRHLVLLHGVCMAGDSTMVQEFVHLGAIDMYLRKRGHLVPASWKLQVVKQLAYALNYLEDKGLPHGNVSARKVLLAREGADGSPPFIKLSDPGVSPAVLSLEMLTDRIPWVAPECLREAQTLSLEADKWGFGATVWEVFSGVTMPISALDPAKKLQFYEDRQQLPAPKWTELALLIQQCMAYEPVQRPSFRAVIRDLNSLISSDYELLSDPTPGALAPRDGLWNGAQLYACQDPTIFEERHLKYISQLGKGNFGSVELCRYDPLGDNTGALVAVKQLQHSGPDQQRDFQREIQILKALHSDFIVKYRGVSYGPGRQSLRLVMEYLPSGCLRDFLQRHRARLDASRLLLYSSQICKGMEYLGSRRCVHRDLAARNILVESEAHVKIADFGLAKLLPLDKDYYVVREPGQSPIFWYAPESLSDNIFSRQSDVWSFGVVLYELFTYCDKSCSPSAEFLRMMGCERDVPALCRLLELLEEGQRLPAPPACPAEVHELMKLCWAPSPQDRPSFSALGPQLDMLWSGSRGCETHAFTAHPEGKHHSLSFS
Chain of Tyk2 (P29597 whole entry): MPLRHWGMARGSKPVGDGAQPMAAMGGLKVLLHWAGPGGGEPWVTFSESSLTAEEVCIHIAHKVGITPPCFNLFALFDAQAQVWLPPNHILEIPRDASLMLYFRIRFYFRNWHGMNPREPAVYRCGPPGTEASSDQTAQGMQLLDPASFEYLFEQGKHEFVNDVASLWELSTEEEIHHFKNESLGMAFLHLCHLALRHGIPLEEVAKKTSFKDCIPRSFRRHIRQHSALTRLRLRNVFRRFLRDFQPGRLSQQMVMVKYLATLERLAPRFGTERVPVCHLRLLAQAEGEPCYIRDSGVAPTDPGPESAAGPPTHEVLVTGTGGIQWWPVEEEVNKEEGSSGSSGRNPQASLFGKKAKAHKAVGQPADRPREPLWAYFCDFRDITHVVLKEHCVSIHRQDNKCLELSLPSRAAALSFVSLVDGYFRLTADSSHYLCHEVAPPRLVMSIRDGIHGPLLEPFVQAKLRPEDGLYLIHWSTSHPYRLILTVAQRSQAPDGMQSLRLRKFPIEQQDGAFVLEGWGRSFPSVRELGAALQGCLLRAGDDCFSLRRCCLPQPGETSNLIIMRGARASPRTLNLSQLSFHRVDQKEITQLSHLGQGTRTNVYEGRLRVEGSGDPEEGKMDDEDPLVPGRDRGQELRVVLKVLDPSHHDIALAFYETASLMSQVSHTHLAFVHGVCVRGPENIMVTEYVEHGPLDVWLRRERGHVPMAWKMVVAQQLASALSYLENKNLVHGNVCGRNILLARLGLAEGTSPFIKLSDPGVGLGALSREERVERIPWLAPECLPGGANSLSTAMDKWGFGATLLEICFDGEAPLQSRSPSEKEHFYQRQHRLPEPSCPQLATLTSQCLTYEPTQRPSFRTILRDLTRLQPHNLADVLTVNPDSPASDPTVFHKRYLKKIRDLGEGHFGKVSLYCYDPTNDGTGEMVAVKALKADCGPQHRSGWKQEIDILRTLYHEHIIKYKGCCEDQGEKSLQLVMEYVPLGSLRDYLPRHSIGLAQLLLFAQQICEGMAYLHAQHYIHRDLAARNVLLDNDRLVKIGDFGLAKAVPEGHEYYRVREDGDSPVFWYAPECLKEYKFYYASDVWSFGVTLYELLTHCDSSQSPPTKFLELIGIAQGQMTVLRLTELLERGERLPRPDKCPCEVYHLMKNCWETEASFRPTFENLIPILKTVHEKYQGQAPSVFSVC

| Structure (SMILES) | JAK 1 (pKi) (JAK1) | JAK 2 (pKi) (JAK2) | JAK 3 (pKi) (JAK3) | JAK3 (pKi)-JAK1 (pKi) (JAK3; [2]) | Tyk 2 (pKi) (Tyk2) | Tall-1 (pIC50) [1, 3] | JAK3 (pKi)-JAK1 (pKi) (JAK3; [4]) | Tall-1 (pIC50) [1, 5] |
| --- | --- | --- | --- | --- | --- | --- | --- | --- |
| C=CC(=O)N1CC(CCn2c(=O)ccc3cnc(Nc4ccc(N5CCN(C)C[C@@H]5C)cc4)nc32)C1 [Example 163] | E (E represents a pKi value of 7 or below (Ki of 100 nM or above)) | E (E represents a pKi value of 7 or below (Ki of 100 nM or above)) | B (B represents pKi value between 9 and 10 (Ki between 1 nM and 0.1 nM)) | A (A represents a value of 3 or above) | E (E represents a pKi value of 7 or below (Ki of 100 nM or above)) | A (A represents a pIC50 value≥7.5 (IC50≤32 nM)) | – | – |
| C=CC(=O)N1CC(CCn2c(=O)ccc3cnc(Nc4ccc(N5CCN(C(C)=O)[C@H](C)C5)cc4)nc32)C1 [Example 169] | E (E represents a pKi value of 7 or below (Ki of 100 nM or above)) | E (E represents a pKi value of 7 or below (Ki of 100 nM or above)) | A (A represents a pKi value≥10 (Ki≤0.1 nM)) | A (A represents a value of 3 or above) | E (E represents a pKi value of 7 or below (Ki of 100 nM or above)) | A (A represents a pIC50 value≥7.5 (IC50≤32 nM)) | – | – |
| C=CC(=O)N1CC(CCn2c(=O)ccc3cnc(Nc4cccc(C(=O)N5CCCCC5)c4)nc32)C1 [Example 64] | E (E represents a pKi value of 7 or below (Ki of 100 nM or above)) | E (E represents a pKi value of 7 or below (Ki of 100 nM or above)) | B (B represents pKi value between 9 and 10 (Ki between 1 nM and 0.1 nM)) | A (A represents a value of 3 or above) | E (E represents a pKi value of 7 or below (Ki of 100 nM or above)) | C (C represents a pIC50 value between 6 and 6.7 (IC50 between 1 μM and 200 nM)) | – | – |
| C=CC(=O)N1CC(CCn2c(=O)ccc3cnc(Nc4cnn(-c5ccccc5)c4)nc32)C1 [Example 34] | E (E represents a pKi value of 7 or below (Ki of 100 nM or above)) | E (E represents a pKi value of 7 or below (Ki of 100 nM or above)) | B (B represents pKi value between 9 and 10 (Ki between 1 nM and 0.1 nM)) | A (A represents a value of 3 or above) | E (E represents a pKi value of 7 or below (Ki of 100 nM or above)) | B (B represents a pC50 value between 6.7 (included) and 7.5 (IC50 between 200 nM and 32 nM)) | – | – |
| C=CC(=O)N1CCN(CCn2c(=O)ccc3cnc(Nc4cnn(C(C)(C)COC)c4)nc32)[C@@H](C)C1 [Example 233] | E (E represents a pKi value of 7 or below (Ki of 100 nM or above)) | E (E represents a pKi value of 7 or below (Ki of 100 nM or above)) | B (B represents pKi value between 9 and 10 (Ki between 1 nM and 0.1 nM)) | A (A represents a value of 3 or above) | E (E represents a pKi value of 7 or below (Ki of 100 nM or above)) | B (B represents a pC50 value between 6.7 (included) and 7.5 (IC50 between 200 nM and 32 nM)) | – | – |
| C=CC(=O)N1CC(CCn2c(=O)ccc3cnc(Nc4ccc(N5CCN(CCN6CCCCC6)CC5)cc4)nc32)C1 [Example 113] | E (E represents a pKi value of 7 or below (Ki of 100 nM or above)) | E (E represents a pKi value of 7 or below (Ki of 100 nM or above)) | B (B represents pKi value between 9 and 10 (Ki between 1 nM and 0.1 nM)) | A (A represents a value of 3 or above) | E (E represents a pKi value of 7 or below (Ki of 100 nM or above)) | A (A represents a pIC50 value≥7.5 (IC50≤32 nM)) | – | – |
| C=CC(=O)N1CC(CCn2c(=O)ccc3cnc(Nc4ccc(N5CCN(C)CC5)cc4)nc32)C1 [Example 45] | E (E represents a pKi value of 7 or below (Ki of 100 nM or above)) | E (E represents a pKi value of 7 or below (Ki of 100 nM or above)) | B (B represents pKi value between 9 and 10 (Ki between 1 nM and 0.1 nM)) | A (A represents a value of 3 or above) | E (E represents a pKi value of 7 or below (Ki of 100 nM or above)) | B (B represents a pC50 value between 6.7 (included) and 7.5 (IC50 between 200 nM and 32 nM)) | – | – |
| C=CC(=O)N1CC(CCn2c(=O)ccc3cnc(Nc4ccc(N5CCN(C)CC5)c(Cl)c4)nc32)C1 [Example 17] | E (E represents a pKi value of 7 or below (Ki of 100 nM or above)) | E (E represents a pKi value of 7 or below (Ki of 100 nM or above)) | B (B represents pKi value between 9 and 10 (Ki between 1 nM and 0.1 nM)) | A (A represents a value of 3 or above) | E (E represents a pKi value of 7 or below (Ki of 100 nM or above)) | B (B represents a pC50 value between 6.7 (included) and 7.5 (IC50 between 200 nM and 32 nM)) | – | – |
| C=CC(=O)N1CC(C)(CCn2c(=O)ccc3cnc(Nc4ccc(N5CCN(C(C)=O)CC5)cc4)nc32)C1 [Example 161] | E (E represents a pKi value of 7 or below (Ki of 100 nM or above)) | E (E represents a pKi value of 7 or below (Ki of 100 nM or above)) | B (B represents pKi value between 9 and 10 (Ki between 1 nM and 0.1 nM)) | A (A represents a value of 3 or above) | E (E represents a pKi value of 7 or below (Ki of 100 nM or above)) | A (A represents a pIC50 value≥7.5 (IC50≤32 nM)) | – | – |
| C=CC(=O)N1CC(CCn2c(=O)ccc3cnc(Nc4ccc(N5CCN(C(=O)C(C)C)CC5)cc4)nc32)C1 [Example 75] | E (E represents a pKi value of 7 or below (Ki of 100 nM or above)) | E (E represents a pKi value of 7 or below (Ki of 100 nM or above)) | C (C represents a pKi value between 8 and 9 (Ki between 10 nM and 1 nM)) | B (B represents a value of 2.5 to 3) | E (E represents a pKi value of 7 or below (Ki of 100 nM or above)) | C (C represents a pIC50 value between 6 and 6.7 (IC50 between 1 μM and 200 nM)) | – | – |
| C=CC(=O)N1CC(CCn2c(=O)ccc3cnc(Nc4cnn(CC)c4)nc32)C1 [Example 241] | E (E represents a pKi value of 7 or below (Ki of 100 nM or above)) | E (E represents a pKi value of 7 or below (Ki of 100 nM or above)) | B (B represents pKi value between 9 and 10 (Ki between 1 nM and 0.1 nM)) | – | E (E represents a pKi value of 7 or below (Ki of 100 nM or above)) | – | A (A represents a value of 3 or above) | B (B represents a pC50 value between 6.7 (included) and 7.5 (IC50 between 200 nM and 32 nM)) |
| C=CC(=O)N1CCN(CCn2c(=O)ccc3cnc(Nc4ccc(N5C[C@@H](C)N(C)[C@@H](C)C5)cc4)nc32)CC1 [Example 248] | E (E represents a pKi value of 7 or below (Ki of 100 nM or above)) | E (E represents a pKi value of 7 or below (Ki of 100 nM or above)) | B (B represents pKi value between 9 and 10 (Ki between 1 nM and 0.1 nM)) | – | E (E represents a pKi value of 7 or below (Ki of 100 nM or above)) | – | A (A represents a value of 3 or above) | A (A represents a pIC50 value≥7.5 (IC50≤32 nM)) |
| C=CC(=O)N1C[C@H](C)N(CCn2c(=O)ccc3cnc(Nc4cnn(C)c4)nc32)C[C@@H]1C [Example 121] | E (E represents a pKi value of 7 or below (Ki of 100 nM or above)) | E (E represents a pKi value of 7 or below (Ki of 100 nM or above)) | B (B represents pKi value between 9 and 10 (Ki between 1 nM and 0.1 nM)) | B (B represents a value of 2.5 to 3) | E (E represents a pKi value of 7 or below (Ki of 100 nM or above)) | C (C represents a pIC50 value between 6 and 6.7 (IC50 between 1 μM and 200 nM)) | – | – |
| C=CC(=O)N1CC(CCn2c(=O)ccc3cnc(Nc4ccc(N5CCN(C)C(C)(C)C5)cc4)nc32)C1 [Example 240] | E (E represents a pKi value of 7 or below (Ki of 100 nM or above)) | E (E represents a pKi value of 7 or below (Ki of 100 nM or above)) | A (A represents a pKi value≥10 (Ki≤0.1 nM)) | – | E (E represents a pKi value of 7 or below (Ki of 100 nM or above)) | – | A (A represents a value of 3 or above) | A (A represents a pIC50 value≥7.5 (IC50≤32 nM)) |
| C=CC(=O)N1CC(C(C)Cn2c(=O)ccc3cnc(Nc4ccc(N5CCN(C)CC5)cc4)nc32)C1 (stereo not drawn) [Example 234] | E (E represents a pKi value of 7 or below (Ki of 100 nM or above)) | E (E represents a pKi value of 7 or below (Ki of 100 nM or above)) | B (B represents pKi value between 9 and 10 (Ki between 1 nM and 0.1 nM)) | A (A represents a value of 3 or above) | E (E represents a pKi value of 7 or below (Ki of 100 nM or above)) | B (B represents a pC50 value between 6.7 (included) and 7.5 (IC50 between 200 nM and 32 nM)) | – | – |
